{"source": "patent US20180311203A1", "about": "“LIQUID FORMULATION OF CABAZITAXEL” (EMCURE PHARMACEUTICALS LIMITED, priority 2015, published 2018)", "origin": "cited, not measured here", "data": [{"smiles": "CO[C@H]1C(=O)[C@]2(C)[C@@H](OC)C[C@H]3OC[C@@]3(OC(C)=O)[C@H]2[C@H](OC(=O)c2ccccc2)[C@]2(O)C[C@H](OC(=O)[C@H](O)[C@@H](NC(=O)OC(C)(C)C)c3ccccc3)C(C)=C1C2(C)C", "note": "[cabazitaxel, (2α,5β,7β, 10β,13a)-4-acetoxy-13-({(2R,3S)-3 [(tertbutoxycarbonyl)amino]-2-hydroxy-3-phenylpropanoyl}oxy)-1-hydroxy-7,10-dimethoxy-9-oxo-5,20-epoxytax-11-en-2-yl benzoate]", "values": [{"measurement": "solubility in water", "result": "about 8 pg per mL"}]}]}
